According to US12461092B2, “Screening method for APP cleavage activity-controlling substances of ADAMTS4” (SHIMADZU CORPORATION, priority 2019, dated 2025):

What was measured:
[1] = tested on: adenocarcinomic human alveolar basal epithelial cell A549; test: Aβ-related peptide production in culture supernatant of A549 cells by IP-MS (Example 4); type: cell-based; conditions: 96 hours, DMSO control
Protocol: (§1) An Aβ-related peptide contained in the culture supernatant was measured by IP-MS corresponding to a combination of immunoprecipitation (IP) and mass spectrometry (MS). In IP, antibody immobilized beads obtained by covalent binding of anti-Aβ antibody clone 6E10 (BioLegend) to Dynabeads Epoxy (Thermo Fisher Scientific) were used.
(§2) The cryopreserved culture supernatant was thawed, and 250 μL of a reaction liquid containing internal standard peptides [800 mM GlcNAc, 0.2/a (w/v) NTM, 0.2% (w/v) DDM, 300 mM NaCl, and 100 mM Tris-HCl buffer (pH 7.4)] was mixed with 250 μL of the culture supernatant. The thus obtained mixture was mixed with the antibody immobilized beads, followed by an antigen antibody reaction at 4° C. for 1 hour. As the internal standard peptides, 22 μM stable isotope labeled Aβ1-38 and 100 μM stable isotope labeled A31-15 were used.
(§3) After the antigen antibody reaction, the antibody immobilized beads were washed with a first washing buffer [washed once with 100 μL of the first washing buffer (0.1% DDM, 0.1% NTM, 50 mM Tris-HCl (pH 7.4) and 150 mM NaCl), and then once with 50 μL of a 50 mM ammonium acetate buffer]. Thereafter, the Aβ-related peptide captured by the antibody immobilized beads was eluted with a glycine buffer containing DDM (50 mM glycine buffer containing 0.1% of DDM, pH 2.8). To the thus obtained eluate, Tris buffer containing DDM [800 mM GlcNAc, 0.2% (w/v) DDM, 300 mM NaCl, and 300 mM Tris-HCl buffer (pH 7.4)] was added to restore the pH to neutral (pH 7.4). Thereafter, the neutral eluate was contacted with the antibody immobilized beads at 4° C. for 1 hour again to cause the antigen antibody reaction of the Aβ-related peptide. The resultant was washed with a second washing buffer [washed twice with 100 μL of the second washing buffer (0.1% DDM, 150 mM Tris-HCl (pH 7.4), and 150 mM NaCl), and once with 50 μL of a 50 mM ammonium acetate buffer], and then, the Aβ-related peptide captured by the antibody immobilized beads was eluted with an eluent (5 mM HCl, 0.1 mM methionine, and 70% (v/v) acetonitrile). In this manner, each eluate containing the Aβ-related peptide was obtained through two-stage IP operation.
(§4) As a matrix for linear TOF, α-cyano-4-hydroxycinnamic acid (CHCA) was used. A matrix solution was prepared by dissolving 1 mg of CHCA in 1 mL of 70% (v/v) acetonitrile. As a matrix additive, 0.4% (w/v) methylenediphosphonic acid (MDPNA) was used. A 1 mg/mL CHCA solution and 0.4% (w/v) MDPNA were mixed in equivalent amounts to obtain a matrix/matrix additive solution [0.5 mg/mL CHCA/0.2% (w/v) MDPNA].
(§5) Precedently, 0.5 μL of the matrix/matrix additive solution was added in a dropwise manner into respective wells of μFocus MALDI Plate™ 900 μm (Hudson Surface Technology, Inc., Fort Lee, NJ), and then dried.
(§6) Each eluate resulting from IP was added in a dropwise manner into 4 wells of the μFocus MALDI Plate™ 900 μm, and then dried.
(§7) Mass spectral data was obtained by linear TOF in the positive ion mode using AXIMA Performance (Shimadzu/KRATOS, Manchester, UK). An m/z value of linear TOF was indicated as an average mass of peaks. The m/z value was calibrated using, as external standards, human angiotensin II, human ACTH fragment 18-39, bovine insulin oxidized beta-chain, and bovine insulin.
(§8) In the mass spectrum, signal intensity of each Aβ-related peptide was normalized using an internal standard peptide. Thereafter, an average of four normalized intensities obtained from one sample was obtained, which was evaluated as a production amount of the Aβ-related peptide. When there were two or more data not reaching a lower detection limit (S/N<3), it was regarded as undetectable.
(§9) A metalloprotease inhibitor, 25 μM GM6001 (Cosmobio) or 10 μM INCB3619 (NPL 8), was caused to act on, or DMSO was added as a control to human neuroblastoma BE(2)-C and adenocarcinomic human alveolar basal epithelial cell A549, and the resultant cells were incubated for 96 hours. […]

[2] = tested on: human neuroblastoma BE(2)-C; test: Aβ-related peptide production in culture supernatant of BE(2)-C cells by IP-MS (Example 4); type: cell-based; conditions: for APP669 cleavage activity (on the N-terminal side): conclusion from BE(2)-C and A549 cells
Protocol: as §1, §2, §3, §4, §5, §6, §7, §8, §9

APP stable HEK cells = test: Aβ-related peptide production in culture supernatant of APP stable HEK cells by IP-MS (Example 4); type: cell-based, human; conditions: 25 μM
Protocol: As a matrix for linear TOF, α-cyano-4-hydroxycinnamic acid (CHCA) was used. A matrix solution was prepared by dissolving 1 mg of CHCA in 1 mL of 70% (v/v) acetonitrile. As a matrix additive, 0.4% (w/v) methylenediphosphonic acid (MDPNA) was used. […]
In the mass spectrum, signal intensity of each Aβ-related peptide was normalized using an internal standard peptide. Thereafter, an average of four normalized intensities obtained from one sample was obtained, which was evaluated as a production amount of the Aβ-related peptide. […]

[3] = tested on: A549-wild type (wt) cells; test: Aβ-related peptide production in culture supernatant of A549-wt cells by IP-MS (Example 1); type: cell-based, human; conditions: 25 μM, 96 hours, compared with DMSO control
Protocol: After the antigen antibody reaction, the antibody immobilized beads were washed with a first washing buffer [washed once with 100 μL of the first washing buffer (0.1% DDM, 0.1% NTM, 50 mM Tris-HCl (pH 7.4) and 150 mM NaCl), and then once with 50 μL of a 50 mM ammonium acetate buffer]. Thereafter, the Aβ-related peptide captured by the antibody immobilized beads was eluted with a glycine buffer containing DDM (50 mM glycine buffer containing 0.1% of DDM, pH 2.8). To the thus obtained eluate, Tris buffer containing DDM [800 mM GlcNAc, 0.2% (w/v) DDM, 300 mM NaCl, and 300 mM Tris-HCl buffer (pH 7.4)] was added to restore the pH to neutral (pH 7.4). Thereafter, the neutral eluate was contacted with the antibody immobilized beads at 4° C. for 1 hour again to cause the antigen antibody reaction of the Aβ-related peptide. The resultant was washed with a second washing buffer [washed twice with 100 μL of the second washing buffer (0.1% DDM, 150 mM Tris-HCl (pH 7.4), and 150 mM NaCl), and once with 50 μL of a 50 mM ammonium acetate buffer], and then, the Aβ-related peptide captured by the antibody immobilized beads was eluted with an eluent (5 mM HCl, 0.1 mM methionine, and 70% (v/v) acetonitrile). In this manner, each eluate containing the Aβ-related peptide was obtained through two-stage IP operation. […]

A549-ADAMTS4 KO cells = test: Aβ-related peptide production in culture supernatant of A549-ADAMTS4 KO cells by IP-MS (Example 1); type: cell-based, human; conditions: 25 μM, 96 hours, compared with DMSO control
Protocol: In A549 cells, an influence on production of APP669-x caused by ADAMTS4 knockout using CRISPR/Cas9 (clustered regularly interspaced short palindromic repeats/CRISPR associated proteins) and guide RNA (gRNA), and a treatment with GM6001, a metalloprotease inhibitor, was evaluated. A549 cell is human adenocarcinomic alveolar basal epithelial cell. The gRNA was designed using CRISPR Search (https://www.sanger.ac.uk/htgt/wge/find_crisprs).
Vectors in which cDNAs respectively encoding paired gRNAs targeting ADAMTS4 were inserted respectively into vector px335 (Addgene 042335) expressing SpCas9 nickase and gRNA and retrovirus-derived vector pBabe Puro U6 BbsI (donated by Professor Dario Alessi, Dundee University) were constructed.
These vectors were transfected, and the resultant transfectants were subjected to selection with puromycin for monocloning. A genome was extracted from each monoclonal cell, and a genome fragment including a gene region targeted by gRNA was amplified by PCR to be subjected to sanger sequencing. Primers used for amplifying the genome fragment were as follows: […]
As a result of analysis of a plurality of monoclonal cells, it was presumed that ADAMTS4 gene region of A549 cell has three alleles. Then, a monoclonal cell respectively having deletion of 16 bp, 29 bp and 20 bp in the gene region of ADAMTS4 gene as shown in FIG. 2 was obtained. Since none of these is a multiple of 3, it is presumed that normal ADAMTS4 protein is not expressed. Therefore, it was regarded that this cell is A549 cell having endogenous ADAMTS4 knockout (KO) (A549-ADAMTS4 KO cell).
A metalloprotease inhibitor, GM6001 (25 μM), or dimethylsulfoxide (DMSO) used as a control was added to each of A549-ADAMTS4 KO cells and A549-wild type (wt) cells, and the resultant cells were incubated for 96 hours. Thereafter, a culture supernatant was collected, and stored at −80° C. until measurement.
as §1
as §2, with “used. […]” for “used.”

[4] = BE(2)-C cells, 10 μM, 96 hours, DMSO control
[5] = BE(2)-C cells, 25 μM, 96 hours, DMSO control

COC(=O)N1CC2(CC2)C[C@H](C(=O)NO)[C@H]1C(=O)N1CC=C(c2ccccc2)CC1 [INCB3619]
production amount of APP669-709 (Aβ(3-38)) ([1]; 10 μM): not changed
production amount of APP669-711 (Aβ(−3-40)) ([1]; 10 μM): not changed
production amount of APP669-709 (Aβ(3-38)) [2, 4]: rather slightly decreased
production amount of APP669-711 (Aβ(−3-40)) [2, 4]: rather slightly decreased
APP669 cleavage activity (on the N-terminal side) ([2]; 10 μM): low effect of decreasing

CNC(=O)[C@H](Cc1c[nH]c2ccccc12)NC(=O)[C@@H](CC(=O)NO)CC(C)C [GM6001]
production amount of APP669-709 (Aβ(3-38)) (APP stable HEK cells): decreased
production amount of APP669-711 (Aβ(−3-40)) (APP stable HEK cells): decreased
production amount of Aβ1-38 (APP stable HEK cells): not decreased
production amount of Aβ1-40 (APP stable HEK cells): not decreased
production amount of APP669-709 (Aβ(−3-38)) [3]: tended to be decreased to substantially a half
production amount of APP669-711 (Aβ(−3-40)) [3]: tended to be decreased to substantially a half
production amount of Aβ1-38 [3]: tended to be rather increased
production amount of Aβ1-40 [3]: tended to be rather increased
production amount of APP669-709 (Aβ(−3-38)) (A549-ADAMTS4 KO cells): tended to be decreased to substantially a half
production amount of APP669-711 (Aβ(−3-40)) (A549-ADAMTS4 KO cells): tended to be decreased to substantially a half
production amount of Aβ1-38 (A549-ADAMTS4 KO cells): tended to be rather increased
production amount of Aβ1-40 (A549-ADAMTS4 KO cells): tended to be rather increased
production amount of APP669-709 (Aβ(3-38)) ([1]; 25 μM): decreased
production amount of APP669-711 (Aβ(−3-40)) ([1]; 25 μM): decreased
production amount of Aβ1-38 ([1]; 25 μM): not decreased
production amount of Aβ1-40 ([1]; 25 μM): not decreased
production amount of APP669-709 (Aβ(3-38)) [2, 5]: decreased
production amount of APP669-711 (Aβ(−3-40)) [2, 5]: decreased
production amount of Aβ1-38 [2, 5]: not decreased
production amount of Aβ1-40 [2, 5]: not decreased
APP669 cleavage activity (on the N-terminal side) ([2]; 25 μM): decreases
